In patent US20190060261A1, “ACTIVE COMBINATIONS OF PERILLIC ACID AND ACTIVITY ENHANCING SUBSTANCES” (B.R.A.I.N BIOTECHNOLOGY RESEARCH AND INFORMATION NETWORK AG, priority 2016, published 2019):
Values after ≈ are worked out from the molar mass of the structure shown.

Legend:
[1] = system: Escherichia coli ATCC®8739; test: Conservation efficacy test according to DIN EN ISO 11930 in cosmetic formulation; format: cell-based; details: cosmetic formulation (oil-water-emulsion), day 0 to day 28
Experimental: (§1) The composition of the formulations was in general as follows (ingredient amounts according to the FDA-code):
(§2) In order to confirm the activity against Gram-positive and Gram-negative bacteria, yeasts and moulds, conservation efficacy tests were performed according to DIN EN ISO 11930. The following classical contamination germs were examined: Escherichia coli (Ec in FIGS. 1 and 2) ATCC®8739, Pseudomonas aeruginosa (Pa in FIGS. 1 and 2) ATCC®9027, Stapyhlococcus aureus (Sa in FIGS. 1 and 2) ATCC®6538, Candida albicans (Ca in FIGS. 1 and 2) ATCC®10231 and Aspergillus brasiliensis (Ab in FIGS. 1 and 2) ATCC®16404. Media composition, incubation conditions and dilution procedures were all conducted according to the guidelines.
(§3) Data are presented as line graphs. […] The tested contamination germs are identified by different symbols as indicated in the diagrams with the following abbreviations: […]

[2] = system: Candida albicans ATCC®10231; test: as above; format: cell-based; details: cosmetic formulation (oil-water-emulsion), day 0 to day 28
Experimental: as §1, §2, §3

[3] = system: Aspergillus brasiliensis ATCC®16404; test: as above; format: cell-based; details: cosmetic formulation (oil-water-emulsion), day 0 to day 28
Experimental: as §1, §2, §3

[4] = system: Stapyhlococcus aureus ATCC®6538; test: as above; format: cell-based, Staphylococcus aureus; details: cosmetic formulation (oil-water-emulsion), day 0 to day 28
Experimental: as §1, §2, §3

[5] = system: Pseudomonas aeruginosa ATCC®9027; test: as above; format: cell-based; details: cosmetic formulation (oil-water-emulsion), day 0 to day 28
Experimental: as §1, §2, §3

[6] = system: Escherichia coli ATCC 8739; test: Minimal inhibition concentration (MIC), microdilution method adapted from DIN EN ISO 20776-1:2006; format: cell-based; details: Escherichia coli, ATCC8739; Mueller-Hinton II Bouillon, 25 mM MES-buffer, 37° C., no growth after 24 h and 72 h; read-out: MIC [A to D] Escherichia coli
Text: (§4) The antimicrobial activity of different substances was examined and compared to perillic acid in vitro using the microdilution method adapted from DIN EN ISO 20776-1:2006. Besides perillic acid and its sodium salt, other organic acids like levulinic acid, p-anisic acid, benzoic acid and sorbic acid as well as alkane-1,2-diols such as hexane-1,2-diol, octane-1,2-diol and decane-1,2-diol were studied. Additionally, the commonly used preservatives 2-phenoxyethanol, 2-phenylethanol and benzyl alcohol were investigated.
(§5) All experiments were done in 96-well plates in a final volume of 200 μL. Test solutions of the investigated compounds were prepared in 25 mM buffered water. The procedure was conducted as following: 4 μL of the particular stock solution were mixed with 196 μL culture medium containing a defined inoculum of the respective target strain. Sterile controls (not inoculated) and growth controls (buffer instead of compound added) were performed. All compound concentrations were tested in triplicate for several times. The following contamination germs were examined: Escherichia coli ATCC 8739, Pseudomonas aeruginosa ATCC 9027, Stapyhlococcus aureus ATCC®6538, Bacillus subtilis subsp. spizizenii ATCC®6633, Candida albicans ATCC®10231 and Aspergillus brasiliensis ATCC®16404. The strains were cultivated either in Mueller-Hinton II Bouillon (Escherichia coli, Pseudomonas aeruginosa, Staphylococcus aureus), in yeast peptone dextrose (Bacillus subtilis, Candida albicans) or in potato dextrose medium (Aspergillus brasiliensis). All culture media were buffered with 25 mM MES-buffer. For compound testing, the plates were incubated at 37° C. for Escherichia coli, Pseudomonas aeruginosa and Staphylococcus aureus, at 28° C. for Bacillus subtilis and Candida albicans, and at 25° C. for Aspergillus brasiliensis. Plates were evaluated after 24 h and 72 h, respectively. The minimal inhibitory concentration (MIC) is defined as the concentration where no microbial growth was observed after 24 h and 72 h incubation at the specified temperature.
(§6) MIC-values are given according to the following letter code.

[7] = system: Bacillus subtilis subsp. spizizenii ATCC®6633; test: Minimal inhibition concentration (MIC), microdilution method; format: cell-based; details: Bacillus subtilis, ATCC6633; yeast peptone dextrose, 25 mM MES-buffer, 28° C., no growth after 24 h and 72 h; read-out: MIC [A to D] Bacillus subtilis
Text: as §4, §5, §6

[8] = system: Candida albicans ATCC®10231; test: as above; format: cell-based; details: yeast peptone dextrose, 25 mM MES-buffer, 28° C., no growth after 24 h and 72 h
Text: as §4, §5, §6

[9] = system: Aspergillus brasiliensis ATCC®16404; test: as above; format: cell-based; details: Aspergillus brasiliensis, ATCC16404; potato dextrose medium, 25 mM MES-buffer, 25° C., no growth after 24 h and 72 h; read-out: MIC [A to D] Aspergillus brasiliensis
Text: as §4, §5, §6

[10] = system: Pseudomonas aeruginosa ATCC 9027; test: as above; format: cell-based; details: Pseudomonas aeruginosa, ATCC9027; Mueller-Hinton II Bouillon, 25 mM MES-buffer, 37° C., no growth after 24 h and 72 h; read-out: MIC [A to D] Pseudomonas aeruginosa
Text: as §4, §5, §6

Pseudomonas aeruginosa = test: Combination of substances with perillic acid: reduction of the MIC of perillic acid; format: cell-based; details: test compound combined with perillic acid; experiments as in Example 1
Experimental: as §5
(§7) Activity of perillic acid was comparably low against Gram-negative bacteria. It was thus tested whether the respective MIC could be reduced by combination of perillic acid with selected substances.
(§8) Experiments were performed as described for Example 1 above. A reduction factor was determined, expressing the reduction of the MIC of perillic acid that was achievable by combination with the combination partner. For example, a reduction factor of 2 means that the MIC of perillic acid was reduced by a factor of 2 by combination of perillic acid with the respective activity enhancing substance.

Escherichia coli = test: as above; format: cell-based; details: test compound combined with perillic acid; experiments as in Example 1
Experimental: as §5, §7, §8

[11] = system: Stapyhlococcus aureus ATCC®6538; test: Minimal inhibition concentration (MIC), microdilution method; format: cell-based, Staphylococcus aureus; details: Mueller-Hinton II Bouillon, 25 mM MES-buffer, 37° C., no growth after 24 h and 72 h
Text: as §4, §5, §6

Row | MIC [6] | MIC [7] | MIC [A to D] Candida albicans [8] | MIC [9] | MIC [10] | Reduction factor (reduction of the MIC of perillic acid by combination with the test compound) Pseudomonas aeruginosa (Pseudomonas aeruginosa) | Reduction factor (reduction of the MIC of perillic acid by combination with the test compound) Escherichia coli (Escherichia coli) | MIC [A to D] Staphylococcus aureus [11] | Compound | criteria for an adequate conservation against E. coli [1] | criteria for an adequate conservation against C. albicans [2] | criteria for an adequate conservation against A. brasiliensis [3] | criteria for an adequate conservation against S. aureus [4] | criteria for an adequate conservation against P. aeruginosa [5]
1 | – | – | – | – | – | – | – | – | C=C(C)[C@@H]1CC=C(C(=O)O)CC1 [Perillic acid] | fulfills the criteria | fulfills the criteria | fulfills the criteria | fulfills the criteria | –
2 | 5000 to 10000 µg/mL (≈ 34.2 to 68.4 mM) | 1000 to 5000 µg/mL (≈ 6.84 to 34.2 mM) | A (MIC>1% (w/v)) | 1000 to 5000 µg/mL (≈ 6.84 to 34.2 mM) | 1000 to 5000 µg/mL (≈ 6.84 to 34.2 mM) | 2000 | 2000 | A (MIC>1% (w/v)) | CCCCCCC(O)CO (centres unmarked) [Octane-1,2-diol] | – | does not fulfill the criteria | – | – | does not fulfill the criteria
